For the first test, the system named is HCV replicon. Kind of test: Replicon based assay of HCV replication inhibition (NPT ELISA). It counts as cell-based, Hepatitis C virus. To be noted: Hepatitis C virus, Huh-7, 72 h, Table I; Huh-7 HCV replicon-containing cells, three days; read-out: Activity. The protocol:
Compounds claimed herein are tested for the ability to inhibit viral replication of the Hepatitis C replicon in cultured cells in which the HCV replicon construct has been incorporated. The HCV replicon system was described by Bartenschlager, et. al (Science, 285, pp. 110-113 (1999)). The replicon system is predictive of in vivo anti-HCV activity; compounds that are active in humans uniformly evidence activity in the replicon assay.
In this assay HCV replicon containing cells are treated with different concentrations of the test compound to ascertain the ability of the test compound to suppress replication of the HCV replicon. As a positive control, HCV replicon-containing cells are treated with different concentrations of interferon alpha, a known inhibitor of HCV replication. The replicon assay system includes Neomycin Phosphotransferase (NPT) as a component of the replicon itself in order to detect the transcription of replicon gene products in the host cell. Cells in which the HCV replicon is actively replicating have high levels of NPT; the level of NPT is proportional to HCV replication. […] The NPT level of each sample is measured using a captured ELISA.
A protocol for testing compounds for the ability to inhibit viral replication of the Hepatitis C replicon cultured cells in which the replicon construct has been incorporated, follows.
The HCV replicon contains, 5′-3′, the HCV-IRES, the neomycin phosphotransferase (neo) gene, the IRES of encephalomyocarditis virus, which directs translation of HCV sequences NS3 to NS5B, and the 3′-NTR. The sequence of the HCV replicon has been deposited in GenBank (Accession no. AJ242652).
The replicon is transfected into Huh-7 cells using standard methods such as electroporation.
The equipment and materials include, but are not limited to, Huh-7 HCV replicon-containing cells, maintenance media (DMEM (Dulbecco's modified Eagle media) supplemented with 10% FBS, L-glutamine, non-essential amino acids, penicillin (100 units/ml), streptomycin (100 micrograms/ml), and 500 micrograms/ml of Geneticin (G418), screening media (DMEM supplemented with 10% FBS, L-glutamine, non-essential amino acids, penicillin (100 units/ml) and streptomycin (100 micrograms/ml)), 96 well tissue culture plates (flat bottom), 96 well plates (U bottom for drug dilution), Interferon alpha for positive control, fixation reagent (such as methanol: acetone), primary antibody (rabbit anti-NPTII), secondary antibody: Eu-N1l, and enhancement solution.
The cells are then seeded onto 96-well plates at a density of 6000-7500 cells/100 microliters/well (6-7.5×10^5 cells/10 ml/plate). The plates are then incubated at 37° C. in a 5% CO2 incubator.
HCV replicon-containing cells are rinsed with once PBS once; 2 mls of trypsin are then added. Cells are incubated at 37° C. in a 5% CO2 incubator for 3-5 minutes. 10 mls of complete medium is added to stop the reaction. Cells are blown gently, put into a 15 ml tube, and spun at 1200 rpm for four minutes. The trypsin/medium solution is removed and 5 mls of medium (500 ml DMEM (high glucose)) from BRL catalog #12430-054; 50 mls 10% FBS, 5% Geneticin G418 (50 mg/ml, BRL catalog #10131-035), 5 ml MEM non-essential amino acids (100×BRL #11140-050) and 5 ml pen-strep (BRL # 15140-148) is added. The cells and media are mixed carefully
Cells are plated with screening medium (500 ml DMEM (BRL #21063-029), 50 ml FBS (BRL #10082-147) and 5 ml MEM non-essential amino acid (BRL #11140-050) at 6000-7500 cells/100 μl/well of 96 well plate (6-7.5×10^5 cells/10 ml/plate). Plates are placed into 37° C. 5% CO2 incubator overnight.
The following morning, drugs (test compounds or interferon alpha) are diluted in 96 well U bottom plates with media or DMSO/media, depending on the final concentration chosen for screening. Generally for 6 concentrations of each test compounds ranging from 10 micromolar to 0.03 micromolar are applied. […]
As for `Fc1ccc(-c2csc(Nc3ccc(OC(F)(F)F)cc3)n2)cc1` [compound 43, 4-(4-fluorophenyl)-N-(4-(trifluoromethoxy)phenyl)thiazol-2-amine], the EC50 is over 10 µM.

`Fc1ccc(-c2csc(Nc3ccc(Oc4ccccc4)cc3)n2)cc1` [compound 144, 4-(4-fluorophenyl)-N-(4-phenoxyphenyl)thiazol-2-amine]: the EC50 was under 1 µM.

On to `COc1ccc(Nc2nc(-c3c(C)nc4sccn34)cs2)cc1` [compound 165, N-(4-methoxyphenyl)-4-(6-methylimidazo[2,1-b]thiazol-5-yl)thiazol-2-amine], for which the EC50 was under 1 µM.

With `c1ccc(Oc2ccc(Nc3nc(-c4cccnc4)cs3)cc2)cc1` [compound 141, N-(4-phenoxyphenyl)-4-(pyridin-3-yl)thiazol-2-amine], the EC50 is under 1 µM.

As for `CCCCCOc1ccc(Nc2nc(-c3ccc(OCC(=O)O)cc3)c(C)s2)cc1C(F)(F)F` [compound 137, 2-(4-(2-(3-(trifluoromethyl)-4-(pentyloxy)phenylamino)-5-methylthiazol-4-yl)phenoxy)acetic acid], the EC50 is under 1 µM.

As for `COc1cccc2sc(Nc3nc(-c4ccncc4)cs3)nc12` [compound 205, 4-methoxy-N-(4-(pyridin-4-yl)thiazol-2-yl)benzo[d]thiazol-2-amine], the EC50 was under 1 µM.

As to `CCCCCOc1ccc(Nc2nc(-c3ccc(F)cc3)c(C)s2)cc1C(F)(F)F` [compound 12, N-(3-(trifluoromethyl)-4-(pentyloxy)phenyl)-4-(4-fluorophenyl)-5-methylthiazol-2-amine], the EC50 was under 1 µM.

Turning to `CC(C)(C)c1ccc(NC(=O)c2nc(-c3cccnc3)cs2)cc1` [compound 111, N-(4-tert-butylphenyl)-4-(pyridin-3-yl)thiazole-2-carboxamide], the EC50 is over 10 µM.

With `CCCCc1ccc(Nc2nc(-c3cccnc3)cs2)cc1` [compound 96, N-(4-butylphenyl)-4-(pyridin-3-yl)thiazol-2-amine], the EC50 was 1 to 10 µM.

Staying with this test, now noted: Hepatitis C virus, Huh-7, 72 h, Table III; Huh-7 HCV replicon-containing cells, three days; read-out: Activity.
With `CCCCCCC(C)Oc1ccc(Nc2nc(-c3ccc(NC(C)=O)nc3)cs2)cc1C(F)(F)F` (stereo not drawn) [compound 676, N-(5-(2-(3-(trifluoromethyl)-4-(octan-2-yloxy)phenylamino)thiazol-4-yl)pyridin-2-yl)acetamide], the EC50 is under 1 µM.

Take `CCCCCCCCOc1ccc(Nc2nc(-c3cnc4ccccc4c3)cs2)cc1C(F)(F)F` [compound 539, N-(3-(trifluoromethyl)-4-(octyloxy)phenyl)-4-(quinolin-3-yl)thiazol-2-amine]: the EC50 was under 1 µM.

In the case of `CCCCCCCCOc1ccc(Nc2nc(-c3ccc4c(c3)SCC(=O)N4)cs2)cc1C(F)(F)F` [compound 669, 7-(2-(3-(trifluoromethyl)-4-(octyloxy)phenylamino)thiazol-4-yl)-2H-benzo[b][1,4]thiazin-3(4H)-one], the EC50 is under 1 µM.

`Fc1ccc(-c2csc(Nc3ccc(OCCCC4CCCC4)c(C(F)(F)F)c3)n2)cn1` [compound 528, N-(4-(3-cyclopentylpropoxy)-3-(trifluoromethyl)phenyl)-4-(6-fluoropyridin-3-yl)thiazol-2-amine]: the EC50 is under 1 µM.

Take `CCCCCCCCOc1ccc(Nc2nccs2)cc1C(F)(F)F` [compound 605, N-(3-(trifluoromethyl)-4-(octyloxy)phenyl)thiazol-2-amine]: the EC50 is under 1 µM.

For `CCCCCCCCc1ccc(Nc2nc(-c3ccc(O)c(C(N)=O)c3)cs2)cc1` [compound 545, 5-(2-(4-octylphenylamino)thiazol-4-yl)-2-hydroxybenzamide], the EC50 is under 1 µM.

The same test, now with this note: Hepatitis C virus, replicon based assay of HCV replication inhibition; Table II; read-out: Activity.
`Cc1sc(Nc2ccc(OC3CCCC3)c(C(F)(F)F)c2)nc1-c1ccc(CC(=O)O)cc1` [compound 245, 2-(4-(2-(4-(cyclopentyloxy)-3-(trifluoromethyl)phenyl-amino)-5-methylthiazol-4-yl)phenyl)acetic acid]: the EC50 was under 1 µM.

For `CCCCCCCCOc1ccc(Nc2nc(CN3CCC(CO)CC3)cs2)cc1` [compound 322, (1-((2-(4-(octyloxy)phenylamino)thia-zol-4-yl)methyl)piperidin-4-yl)methanol], the EC50 was in the range of 1 to 10 µM.

On to `CCCCCCCCOc1ccc(Nc2nc(-c3ccc(F)c(F)c3)cs2)cc1` [compound 312, 4-(3,4-difluorophenyl)-N-(4-(octyloxy)phenyl)thiazol-2-amine], for which the EC50 is under 1 µM.

On to `CCCCCN(C)c1ccc(Nc2nc(-c3ccc(C)nc3)cs2)cc1C(F)(F)F` [compound 454, 2-(trifluoromethyl)-N^1-methyl-N^4-(4-(6-methylpyridin-3-yl)thiazol-2-yl)-N^1-pentylbenzene-1,4-diamine], for which the EC50 is under 1 µM.

On to `CCCCCCCCOc1ccc(Nc2nc(-c3nc4ccccc4s3)cs2)cc1` [compound 388, 4-(benzo[d]thiazol-2-yl)-N-(4-(octyloxy)phenyl)thiazol-2-amine], for which the EC50 is under 1 µM.

For the molecule `CCCCCCCCOc1ccc(Nc2nc(-c3ccc(OC)cc3)cs2)cc1` [compound 310, 4-(4-methoxyphenyl)-N-(4-(octyloxy)phenyl)thiazol-2-amine], the EC50 is under 1 µM.

For the molecule `CCCCCOc1ccc(Nc2nc(CN3CCN(Cc4ccccn4)CC3)cs2)cc1F` [compound 281, N-(3-fluoro-4-(pentyloxy)phenyl)-4-((4-(pyridin-2-ylmethyl)piperiazin-1-yl)methyl)thiazol-2-amine], the EC50 is under 1 µM.

Regarding `c1ccc(Oc2cccc(Nc3nc(-c4ccncc4)cs3)c2)cc1` [compound 366, N-(3-phenoxyphenyl)-4-(pyridin-4-yl)thiazol-2-amine], the EC50 is under 1 µM.

In the case of `CCCCCOc1ccc(Nc2nc(CN3CCC(C)CC3)cs2)cc1F` [compound 295, N-(3-fluoro-4-(pentyloxy)pheenyl)-4-((4-methylpiperidin-1-yl)methyl)thiazol-2-amine], the EC50 was 1 to 10 µM.

`CCCCCCCCOc1ccc(Nc2nc(-c3csc(N)n3)cs2)cc1` [compound 306, 4-(2-aminothiazol-4-yl)-N-(4-(octyloxy)phenyl)thiazol-2-amine]: the EC50 was under 1 µM.

Staying with this test, now noted: Hepatitis C virus, replicon based assay of HCV replication inhibition; Table IV; read-out: Activity.
Take `Cc1cccc(C#CCCOc2ccc(Nc3nc(-c4cccnc4)cs3)cc2C(F)(F)F)c1` [compound 949, N-(4-(4-m-tolylbut-3-ynyloxy)-3-(trifluoromethyl)phenyl)-4-(pyridin-3-yl)thiazol-2-amine]: the EC50 is under 1 µM.

For the molecule `CCCCCCCCS(=O)(=O)c1ccc(Nc2nc(-c3cccnc3)cs2)cc1` [compound 951, N-(4-(octylsulfonyl)phenyl)-4-(pyridin-3-yl)thiazol-2-amine], the EC50 is under 1 µM.

`Fc1ccc(Nc2nc(-c3cccnc3)cs2)cc1C(F)(F)F` [compound 875, N-(4-fluoro-3-(trifluoromethyl)phenyl)-4-(pyridin-3-yl)thiazol-2-amine]: the EC50 lay within 1 to 10 µM.

In the case of `CC(C)c1ccc(Nc2nc(-c3cccnc3)cs2)cc1` [compound 887, N-(4-isopropylphenyl)-4-(pyridin-3-yl)thiazol-2-amine], the EC50 lay within 1 to 10 µM.

For `Fc1ccc(Nc2nc(-c3cccnc3)cs2)c(F)c1F` [compound 889, N-(2,3,4-trifluorophenyl)-4-(pyridin-3-yl)thiazol-2-amine], the EC50 is over 10 µM.

Source of the values: patent US8088806B2 (Achillion Pharmaceuticals, Inc., priority 2005, dated 2012).
